We go through 14 molecules from patent US20190134005A1 (BioMarin Pharmaceutical Inc., priority 2016, published 2019).

The structures appear in SMILES notation.

The assay concerns the target T1, human CGT (Homo sapiens, UniProt Q16880).
T1 sequence (Q16880 21-541): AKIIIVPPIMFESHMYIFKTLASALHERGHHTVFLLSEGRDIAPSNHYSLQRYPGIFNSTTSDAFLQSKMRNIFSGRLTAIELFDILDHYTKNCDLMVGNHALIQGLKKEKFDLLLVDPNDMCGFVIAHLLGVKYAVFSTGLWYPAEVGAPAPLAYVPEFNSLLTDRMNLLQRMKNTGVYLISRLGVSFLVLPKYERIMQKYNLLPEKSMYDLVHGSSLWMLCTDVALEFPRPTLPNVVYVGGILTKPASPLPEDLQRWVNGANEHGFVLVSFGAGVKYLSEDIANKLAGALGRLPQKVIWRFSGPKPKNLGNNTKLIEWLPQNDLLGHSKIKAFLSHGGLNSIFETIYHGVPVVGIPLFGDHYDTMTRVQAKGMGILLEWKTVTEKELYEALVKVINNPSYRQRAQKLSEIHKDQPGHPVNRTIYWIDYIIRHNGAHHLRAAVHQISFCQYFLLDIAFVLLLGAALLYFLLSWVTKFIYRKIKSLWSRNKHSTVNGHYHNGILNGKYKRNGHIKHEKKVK
Nature of the assay: CGT Enzyme Assay (Biological Example 2, RapidFire/MS/MS method with 0.01% Tween 80 added). Format: biochemical. Particulars: enzymatic assay, CHO/CGT lysate. The essentials: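 Lysate of CHO cells transfected with full-length human CGT, 0.5% DMSO final, 0.01% Tween 80 added; reactions stopped with methanol:acetonitrile holding internal standard. C6-NBD-dihydro-galactosylceramide and C6-NBD-dihydro-ceramide measured by RapidFire/MS/MS (ESI negative), product peak area normalized to internal standard.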
Consider `Cc1ccc(N2C(=O)N(c3ccc(C#N)cc3)[C@H](c3cccc(OC(F)(F)F)c3)C2(C)C)cc1` [Example 50-1, (R)-4-(4,4-dimethyl-2-oxo-3-(p-tolyl)-5-(3-(trifluoromethoxy)phenyl)imidazolidin-1-yl)benzonitrile], for which the IC50 (commonly the concentration that inhibits the measured activity by half) was less than 1 µM.

The molecule `CC1(C)[C@@H](c2cccc(OC(F)F)c2)N(c2ccc(Cl)cc2)C(=O)N1c1ccc(Cl)cc1` [Example 9-1, (R)-1,3-bis(4-chlorophenyl)-5-(3-(difluoromethoxy)phenyl)-4,4-dimethylimidazolidin-2-one] gave an IC50 of 10 to 30 µM.

In the case of `O=C1N(c2ccc(Cl)cc2)C2CCCC2(c2cccc(O)c2)N1c1ccc(Cl)cc1` (centres unmarked) [Example 18], the IC50 lay in the range of 10 to 30 µM.

Consider `N#Cc1ccc(N2C(=O)N(c3ccc(C#N)cc3)C3(COC3)[C@@H]2c2cccc(OC(F)(F)F)c2)cc1` [Example 36-2], for which the IC50 was less than 1 µM.

`O=C1N(c2ccc(Cl)cc2)[C@@H]2CCC[C@]2(c2cccc(OC(F)F)c2)N1c1ccc(Cl)cc1` [Example 23-2, (3aR,6aR)-1,3-bis(4-chlorophenyl)-3a-(3-(difluoromethoxy)phenyl)hexahydrocyclopenta[d]imidazol-2(1H)-one] had an IC50 of 10 to 30 µM.

In the case of `CC1(C)[C@@H](c2cccc(C(F)(F)F)c2)N(c2ccc(Cl)cc2)C(=O)N1c1ccc(Cl)cc1` [Example 6-1, (R)-1,3-bis(4-chlorophenyl)-4,4-dimethyl-5-(3-(trifluoromethyl)phenyl)imidazolidin-2-one], the IC50 fell in the range of 10 to 30 µM.

Turning to `CCC1(CC)[C@H](c2cccc(OC(F)(F)F)c2)N(c2ccc(Cl)cc2)C(=O)N1c1ccc(Cl)cc1` [Example 17-2, (S)-1,3-bis(4-chlorophenyl)-4,4-diethyl-5-(3-(trifluoromethoxy)phenyl)imidazolidin-2-one], the IC50 was in the range of 1 to 10 µM.

Consider `O=C1N(c2ccc(Cl)cc2)C2CCOC[C@]2(c2cccc(OC(F)(F)F)c2)N1c1ccc(Cl)cc1` (stereo partly drawn) [Example 31-1, (3aR)-1,3-bis(4-chlorophenyl)-3a-(3-(trifluoromethoxy)phenyl)hexahydropyrano[3,4-d]imidazol-2(3H)-one], for which the IC50 was in the range of 10 to 30 µM.

On to `Cc1ccc(N2C(=O)N(c3ccc(C#N)cc3)[C@H](c3cccc(C#N)c3)C23COC3)cc1` [Example 55-1, (R)-3-(7-(4-cyanophenyl)-6-oxo-5-(p-tolyl)-2-oxa-5,7-diazaspiro[3.4]octan-8-yl)benzonitrile], for which the IC50 was in the range of 10 to 30 µM.

Turning to `Cc1ccc(N2C(=O)N(c3ccc(C#N)cc3)C3(COC3)[C@@H]2c2cccc(C#N)c2)cc1` [Example 57-2, (S)-3-(5-(4-cyanophenyl)-6-oxo-7-(p-tolyl)-2-oxa-5,7-diazaspiro[3.4]octan-8-yl)benzonitrile], the IC50 is less than 1 µM.

For the molecule `CC1(C)[C@H](c2cccc(OC(F)F)c2)N(c2ccc(Cl)cc2)C(=O)N1c1ccc(Cl)cc1` [Example 9-2, (S)-1,3-bis(4-chlorophenyl)-5-(3-(difluoromethoxy)phenyl)-4,4-dimethylimidazolidin-2-one], the IC50 was less than 1 µM.

On to `C[C@@]1(C(F)(F)F)[C@H](c2cccc(OC(F)(F)F)c2)N(c2ccc(C#N)cc2)C(=O)N1c1ccc(C#N)cc1` [Example 39-1, 4,4′-((4S,5S)-4-methyl-2-oxo-5-(3-(trifluoromethoxy)phenyl)-4-(trifluoromethyl)imidazolidine-1,3-diyl)dibenzonitrile], for which the IC50 is less than 1 µM.

The molecule `Cc1ccc(N2C(=O)N(c3ccc(C)cc3)C(C)(C)[C@H]2c2cccc(OC(F)(F)F)c2)cc1` [Example 21-1, (R)-4,4-dimethyl-1,3-di-p-tolyl-5-(3-(trifluoromethoxy)phenyl)imidazolidin-2-one] gave an IC50 of 1 to 10 µM.

Take `COC[C@@]1(C)[C@@H](c2cccc(OC(F)(F)F)c2)N(c2ccc(Cl)cc2)C(=O)N1c1ccc(Cl)cc1` [Example 37-1, (4R,5R)-1,3-bis(4-chlorophenyl)-4-(methoxymethyl)-4-methyl-5-(3-(trifluoromethoxy)phenyl)imidazolidin-2-one]: the IC50 is 1 to 10 µM.
